Measurements from paper PMC9329436, “Optimization of the 4-anilinoquin(az)oline scaffold as epidermal growth factor receptor (EGFR) inhibitors for chordoma utilizing a toxicology profiling assay platform” (Scientific Reports, 2022).
Read-outs that look alike come from different tables or passages of the source.

Columns and labels:
Format in all cases: biochemical
[1] = biological target: T1, 320 wild-type protein kinases (Homo sapiens, UniProt O14965); settings: Aurora-A, singlicate
T1 sequence (O14965 1-403): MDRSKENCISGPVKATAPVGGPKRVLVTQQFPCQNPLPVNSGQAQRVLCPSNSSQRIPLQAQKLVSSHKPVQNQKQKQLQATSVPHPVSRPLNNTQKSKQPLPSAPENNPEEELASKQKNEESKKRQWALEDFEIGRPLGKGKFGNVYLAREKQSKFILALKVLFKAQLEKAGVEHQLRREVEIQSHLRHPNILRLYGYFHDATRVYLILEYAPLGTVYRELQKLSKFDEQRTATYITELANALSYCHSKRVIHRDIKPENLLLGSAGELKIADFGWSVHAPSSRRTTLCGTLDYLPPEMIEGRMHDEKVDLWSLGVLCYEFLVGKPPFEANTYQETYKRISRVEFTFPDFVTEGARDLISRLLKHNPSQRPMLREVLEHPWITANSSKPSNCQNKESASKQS
Source text: (§1) Table S4. Profiling of two compounds at two concentrations against 320 wild-type protein kinases; singlicate measurement; Residual activities (% of control).

[2] = biological target: 320 wild-type protein kinases (Homo sapiens, UniProt O75582); settings: kinase RPS6KA5, singlicate
Source text: as §1

[3] = biological target: 320 wild-type protein kinases (Homo sapiens, UniProt O75676); settings: kinase RPS6KA4, singlicate
320 wild-type protein kinases (Homo sapiens, UniProt O75676), sequence (O75676 whole entry): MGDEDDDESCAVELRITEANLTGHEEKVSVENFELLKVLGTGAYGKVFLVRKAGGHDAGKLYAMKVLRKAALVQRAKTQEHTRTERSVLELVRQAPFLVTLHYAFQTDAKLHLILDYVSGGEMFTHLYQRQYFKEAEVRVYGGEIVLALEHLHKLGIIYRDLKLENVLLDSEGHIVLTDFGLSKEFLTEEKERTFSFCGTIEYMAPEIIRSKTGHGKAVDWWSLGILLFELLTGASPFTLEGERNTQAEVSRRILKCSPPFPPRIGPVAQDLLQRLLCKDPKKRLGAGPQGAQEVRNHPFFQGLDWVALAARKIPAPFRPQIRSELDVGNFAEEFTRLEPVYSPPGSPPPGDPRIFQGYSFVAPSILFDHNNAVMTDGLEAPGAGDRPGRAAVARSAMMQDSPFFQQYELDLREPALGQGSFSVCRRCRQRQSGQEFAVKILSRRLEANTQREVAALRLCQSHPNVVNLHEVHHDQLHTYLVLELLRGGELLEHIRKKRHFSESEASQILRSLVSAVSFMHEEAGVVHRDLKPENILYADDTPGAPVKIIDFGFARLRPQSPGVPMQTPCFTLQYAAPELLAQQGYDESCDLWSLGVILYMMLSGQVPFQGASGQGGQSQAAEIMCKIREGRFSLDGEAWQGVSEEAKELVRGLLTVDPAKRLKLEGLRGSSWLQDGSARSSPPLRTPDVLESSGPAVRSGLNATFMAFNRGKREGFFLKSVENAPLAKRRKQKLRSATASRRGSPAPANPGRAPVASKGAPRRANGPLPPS
Source text: as §1

[4] = biological target: 320 wild-type protein kinases (Homo sapiens, UniProt P17948); settings: kinase VEGF-R1, singlicate
Source text: as §1

[5] = biological target: 320 wild-type protein kinases (Homo sapiens, UniProt P32298); settings: singlicate
Source text: as §1

[6] = biological target: 320 wild-type protein kinases (Homo sapiens, UniProt P43405); settings: kinase SYK aa1-635, singlicate
Source text: as §1

[7] = biological target: 320 wild-type protein kinases (Homo sapiens, UniProt P45983); settings: singlicate
Source text: as §1

[8] = biological target: 320 wild-type protein kinases (Homo sapiens, UniProt P51957); settings: singlicate
320 wild-type protein kinases (Homo sapiens, UniProt P51957), sequence (P51957 whole entry): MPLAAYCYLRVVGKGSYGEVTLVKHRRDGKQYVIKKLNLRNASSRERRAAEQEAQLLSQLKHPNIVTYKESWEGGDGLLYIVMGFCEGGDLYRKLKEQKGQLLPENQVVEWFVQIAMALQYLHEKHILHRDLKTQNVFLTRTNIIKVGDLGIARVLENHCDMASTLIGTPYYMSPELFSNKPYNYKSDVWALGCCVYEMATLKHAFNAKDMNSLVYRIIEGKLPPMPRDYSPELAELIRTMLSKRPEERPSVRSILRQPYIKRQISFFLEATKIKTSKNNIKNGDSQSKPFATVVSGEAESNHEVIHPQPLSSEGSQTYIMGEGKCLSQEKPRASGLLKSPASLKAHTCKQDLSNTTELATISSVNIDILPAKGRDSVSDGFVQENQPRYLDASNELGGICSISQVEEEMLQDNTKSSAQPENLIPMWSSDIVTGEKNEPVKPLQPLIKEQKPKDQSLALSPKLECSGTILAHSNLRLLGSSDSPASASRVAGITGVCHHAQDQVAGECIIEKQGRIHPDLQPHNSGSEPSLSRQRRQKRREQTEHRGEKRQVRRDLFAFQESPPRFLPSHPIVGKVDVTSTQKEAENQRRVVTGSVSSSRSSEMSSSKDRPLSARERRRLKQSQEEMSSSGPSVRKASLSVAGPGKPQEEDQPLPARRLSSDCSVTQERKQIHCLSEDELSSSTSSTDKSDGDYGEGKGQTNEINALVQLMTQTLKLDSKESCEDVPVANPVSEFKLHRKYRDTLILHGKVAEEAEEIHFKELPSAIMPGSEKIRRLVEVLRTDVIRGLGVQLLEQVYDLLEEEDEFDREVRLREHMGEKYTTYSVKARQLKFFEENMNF
Source text: as §1

[9] = biological target: 320 wild-type protein kinases (Homo sapiens, UniProt P53779); settings: singlicate
Source text: as §1

[10] = biological target: 320 wild-type protein kinases (Homo sapiens, UniProt P68400); settings: singlicate
Source text: as §1

[11] = biological target: 320 wild-type protein kinases (Homo sapiens, UniProt Q13131); settings: singlicate
Source text: as §1

[12] = biological target: 320 wild-type protein kinases (Homo sapiens, UniProt Q13555); settings: CAMK2G, singlicate
320 wild-type protein kinases (Homo sapiens, UniProt Q13555), sequence (Q13555 whole entry): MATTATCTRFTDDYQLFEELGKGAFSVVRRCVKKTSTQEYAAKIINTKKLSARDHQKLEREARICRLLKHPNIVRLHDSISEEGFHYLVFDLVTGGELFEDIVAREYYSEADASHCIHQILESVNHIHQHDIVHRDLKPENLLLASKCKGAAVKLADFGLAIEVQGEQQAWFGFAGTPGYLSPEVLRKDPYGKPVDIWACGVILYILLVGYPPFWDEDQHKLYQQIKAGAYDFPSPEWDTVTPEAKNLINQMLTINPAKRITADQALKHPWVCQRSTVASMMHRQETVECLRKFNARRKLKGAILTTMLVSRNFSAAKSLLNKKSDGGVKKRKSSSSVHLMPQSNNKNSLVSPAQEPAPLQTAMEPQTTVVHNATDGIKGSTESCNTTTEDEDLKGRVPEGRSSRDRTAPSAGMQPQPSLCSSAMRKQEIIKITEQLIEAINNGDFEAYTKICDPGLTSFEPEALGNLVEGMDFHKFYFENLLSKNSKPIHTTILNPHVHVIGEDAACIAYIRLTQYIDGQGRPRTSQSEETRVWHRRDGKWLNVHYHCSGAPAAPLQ
Source text: as §1

[13] = biological target: 320 wild-type protein kinases (Homo sapiens, UniProt Q13882); settings: BRK, singlicate
Source text: as §1

[14] = biological target: 320 wild-type protein kinases (Homo sapiens, UniProt Q14289); settings: kinase PYK2, singlicate
320 wild-type protein kinases (Homo sapiens, UniProt Q14289), sequence (Q14289 whole entry): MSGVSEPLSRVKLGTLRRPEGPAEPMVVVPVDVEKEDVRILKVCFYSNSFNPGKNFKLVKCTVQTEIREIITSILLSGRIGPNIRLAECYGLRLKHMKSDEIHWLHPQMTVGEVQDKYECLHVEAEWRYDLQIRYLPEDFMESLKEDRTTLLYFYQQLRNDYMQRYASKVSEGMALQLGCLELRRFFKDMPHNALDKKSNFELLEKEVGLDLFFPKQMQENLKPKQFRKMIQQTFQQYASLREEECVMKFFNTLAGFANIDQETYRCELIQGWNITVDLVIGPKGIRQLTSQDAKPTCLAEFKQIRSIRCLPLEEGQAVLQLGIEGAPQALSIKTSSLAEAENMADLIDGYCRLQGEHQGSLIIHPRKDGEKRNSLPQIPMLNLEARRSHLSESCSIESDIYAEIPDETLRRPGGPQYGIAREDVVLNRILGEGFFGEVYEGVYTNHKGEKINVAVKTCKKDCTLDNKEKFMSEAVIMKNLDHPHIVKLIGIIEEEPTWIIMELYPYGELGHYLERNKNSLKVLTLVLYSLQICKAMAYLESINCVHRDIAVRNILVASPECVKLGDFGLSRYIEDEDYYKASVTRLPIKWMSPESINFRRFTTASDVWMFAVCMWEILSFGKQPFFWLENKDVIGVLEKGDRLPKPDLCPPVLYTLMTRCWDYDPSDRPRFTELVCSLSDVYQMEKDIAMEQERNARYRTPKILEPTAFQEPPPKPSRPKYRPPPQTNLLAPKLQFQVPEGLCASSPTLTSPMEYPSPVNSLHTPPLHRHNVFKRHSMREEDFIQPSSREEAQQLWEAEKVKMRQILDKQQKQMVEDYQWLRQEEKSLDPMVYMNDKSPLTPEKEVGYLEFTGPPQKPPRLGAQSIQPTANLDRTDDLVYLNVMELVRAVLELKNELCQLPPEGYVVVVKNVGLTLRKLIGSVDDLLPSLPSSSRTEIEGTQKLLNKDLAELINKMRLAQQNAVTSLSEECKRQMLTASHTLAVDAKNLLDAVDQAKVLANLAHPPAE
Source text: as §1

[15] = biological target: T2, 320 wild-type protein kinases (Homo sapiens, UniProt Q32MK0); settings: singlicate
T2 sequence (Q32MK0 1-819): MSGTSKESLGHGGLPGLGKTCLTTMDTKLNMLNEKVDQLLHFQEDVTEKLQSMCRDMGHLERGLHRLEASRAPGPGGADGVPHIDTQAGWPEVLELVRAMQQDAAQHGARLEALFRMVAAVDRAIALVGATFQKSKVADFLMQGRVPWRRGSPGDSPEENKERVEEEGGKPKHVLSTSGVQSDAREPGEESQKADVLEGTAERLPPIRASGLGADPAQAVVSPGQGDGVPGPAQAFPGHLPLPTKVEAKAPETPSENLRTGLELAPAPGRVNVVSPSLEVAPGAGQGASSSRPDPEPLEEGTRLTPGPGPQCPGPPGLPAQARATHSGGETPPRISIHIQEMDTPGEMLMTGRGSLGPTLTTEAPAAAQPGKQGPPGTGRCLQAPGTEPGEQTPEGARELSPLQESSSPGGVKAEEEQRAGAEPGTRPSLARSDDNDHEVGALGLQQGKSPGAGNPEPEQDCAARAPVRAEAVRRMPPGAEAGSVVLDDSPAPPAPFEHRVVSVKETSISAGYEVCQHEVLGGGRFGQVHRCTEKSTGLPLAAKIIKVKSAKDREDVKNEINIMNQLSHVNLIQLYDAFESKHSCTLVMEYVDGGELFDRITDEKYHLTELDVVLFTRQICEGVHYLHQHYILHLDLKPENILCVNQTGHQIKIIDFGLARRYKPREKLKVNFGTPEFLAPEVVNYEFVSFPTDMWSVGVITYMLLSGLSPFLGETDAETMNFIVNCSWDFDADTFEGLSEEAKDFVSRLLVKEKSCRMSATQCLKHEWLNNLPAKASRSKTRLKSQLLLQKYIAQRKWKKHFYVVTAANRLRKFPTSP
Source text: as §1

[16] = biological target: 320 wild-type protein kinases (Homo sapiens, UniProt Q8TDX7); settings: singlicate
320 wild-type protein kinases (Homo sapiens, UniProt Q8TDX7), sequence (Q8TDX7 whole entry): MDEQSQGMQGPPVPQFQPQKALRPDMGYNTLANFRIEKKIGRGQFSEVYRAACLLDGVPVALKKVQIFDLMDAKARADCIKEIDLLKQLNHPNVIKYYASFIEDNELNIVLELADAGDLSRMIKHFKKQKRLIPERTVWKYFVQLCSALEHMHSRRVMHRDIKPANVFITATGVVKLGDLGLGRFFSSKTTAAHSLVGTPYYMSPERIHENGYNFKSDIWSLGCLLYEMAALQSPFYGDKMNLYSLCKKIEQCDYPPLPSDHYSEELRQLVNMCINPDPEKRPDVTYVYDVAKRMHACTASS
Source text: as §1

[17] = biological target: 320 wild-type protein kinases (Homo sapiens, UniProt Q9UM73); settings: ALK (GST-HIS-tag), singlicate
320 wild-type protein kinases (Homo sapiens, UniProt Q9UM73), sequence (Q9UM73 19-1620): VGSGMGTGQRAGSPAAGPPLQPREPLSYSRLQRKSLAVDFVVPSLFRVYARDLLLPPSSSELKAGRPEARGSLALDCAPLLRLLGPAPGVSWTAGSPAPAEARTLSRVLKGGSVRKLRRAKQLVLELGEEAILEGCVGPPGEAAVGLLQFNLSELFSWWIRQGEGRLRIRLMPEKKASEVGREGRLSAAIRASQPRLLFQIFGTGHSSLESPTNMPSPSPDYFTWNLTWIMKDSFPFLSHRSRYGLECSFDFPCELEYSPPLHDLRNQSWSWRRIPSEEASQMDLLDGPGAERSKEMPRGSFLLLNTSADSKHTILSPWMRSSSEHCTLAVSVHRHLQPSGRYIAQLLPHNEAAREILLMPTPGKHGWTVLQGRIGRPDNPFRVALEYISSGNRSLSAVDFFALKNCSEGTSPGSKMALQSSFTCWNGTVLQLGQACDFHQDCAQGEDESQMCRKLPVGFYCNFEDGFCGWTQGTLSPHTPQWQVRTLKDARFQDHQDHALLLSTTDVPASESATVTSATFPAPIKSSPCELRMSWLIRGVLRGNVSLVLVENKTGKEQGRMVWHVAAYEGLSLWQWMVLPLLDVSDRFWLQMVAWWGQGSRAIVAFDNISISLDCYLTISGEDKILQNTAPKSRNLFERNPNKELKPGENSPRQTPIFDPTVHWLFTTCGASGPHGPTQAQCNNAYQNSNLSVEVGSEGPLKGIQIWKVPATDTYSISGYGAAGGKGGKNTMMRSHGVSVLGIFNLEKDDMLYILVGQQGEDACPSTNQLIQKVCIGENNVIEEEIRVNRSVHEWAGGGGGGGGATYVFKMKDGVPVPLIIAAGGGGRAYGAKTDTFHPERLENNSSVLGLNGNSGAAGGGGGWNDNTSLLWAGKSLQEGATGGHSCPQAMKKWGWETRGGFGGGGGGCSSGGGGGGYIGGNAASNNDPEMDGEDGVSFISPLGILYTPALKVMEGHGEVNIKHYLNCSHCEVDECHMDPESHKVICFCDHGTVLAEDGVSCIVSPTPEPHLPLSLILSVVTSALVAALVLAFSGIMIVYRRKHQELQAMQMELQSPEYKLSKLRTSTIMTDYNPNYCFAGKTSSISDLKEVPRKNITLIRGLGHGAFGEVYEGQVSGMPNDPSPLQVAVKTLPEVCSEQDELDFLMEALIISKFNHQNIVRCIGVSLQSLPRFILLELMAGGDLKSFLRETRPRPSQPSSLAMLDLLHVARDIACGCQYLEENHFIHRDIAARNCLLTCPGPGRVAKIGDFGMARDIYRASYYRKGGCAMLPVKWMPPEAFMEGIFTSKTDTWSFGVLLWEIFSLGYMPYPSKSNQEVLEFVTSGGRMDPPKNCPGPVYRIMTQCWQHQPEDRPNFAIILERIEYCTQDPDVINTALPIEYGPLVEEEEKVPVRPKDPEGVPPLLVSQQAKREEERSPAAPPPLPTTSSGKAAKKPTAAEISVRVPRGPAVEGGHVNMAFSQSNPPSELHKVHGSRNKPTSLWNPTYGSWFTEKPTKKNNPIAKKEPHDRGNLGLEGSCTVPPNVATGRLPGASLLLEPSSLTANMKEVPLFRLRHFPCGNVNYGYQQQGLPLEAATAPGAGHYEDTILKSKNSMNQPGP
Source text: as §1

Row | SMILES | Residual activity ([1]; 1.0E-06 M) | Residual activity ([1]; 1.0E-07 M) | Residual activity, RPS6KA5 ([2]; assay conc. 1.0E-06 M) | Residual activity, RPS6KA5 ([2]; assay conc. 1.0E-07 M) | Residual activity, RPS6KA4 ([3]; assay conc. 1.0E-06 M) | Residual activity, RPS6KA4 ([3]; assay conc. 1.0E-07 M) | Residual activity, VEGF-R1 ([4]; assay conc. 1.0E-06 M) | Residual activity, VEGF-R1 ([4]; assay conc. 1.0E-07 M) | Residual activity ([5]; GRK4, 1.0E-06 M) | Residual activity ([5]; GRK4, 1.0E-07 M) | Residual activity, SYK aa1-635 ([6]; assay conc. 1.0E-06 M) | Residual activity, SYK aa1-635 ([6]; assay conc. 1.0E-07 M) | Residual activity ([7]; JNK1, 1.0E-06 M) | Residual activity ([7]; JNK1, 1.0E-07 M) | Residual activity ([8]; NEK4, 1.0E-06 M) | Residual activity ([8]; NEK4, 1.0E-07 M) | Residual activity ([9]; JNK3, 1.0E-06 M) | Residual activity ([9]; JNK3, 1.0E-07 M) | Residual activity ([10]; CK2-alpha1, 1.0E-06 M) | Residual activity ([10]; CK2-alpha1, 1.0E-07 M) | further results
1 | C#Cc1cc(Nc2ncnc3cc(I)ccc23)ccc1Cl [Compound 41] | 81 % of control | 95 % of control | 99 % of control | 112 % of control | 93 % of control | 95 % of control | 113 % of control | 92 % of control | 113 % of control | 128 % of control | 94 % of control | 94 % of control | 91 % of control | 90 % of control | 94 % of control | 100 % of control | 99 % of control | 90 % of control | 99 % of control | 104 % of control | Residual activity ([11]; AMPK-alpha1 aa1-550, 1.0E-06 M): 107 % of control; Residual activity ([11]; AMPK-alpha1 aa1-550, 1.0E-07 M): 106 % of control; Residual activity ([12]; 1.0E-06 M): 93 % of control; Residual activity ([12]; 1.0E-07 M): 118 % of control; Residual activity ([13]; 1.0E-06 M): 110 % of control; Residual activity ([13]; 1.0E-07 M): 100 % of control; Residual activity, PYK2 ([14]; assay conc. 1.0E-06 M): 97 % of control; Residual activity, PYK2 ([14]; assay conc. 1.0E-07 M): 103 % of control; Residual activity ([15]; MYLK3, 1.0E-06 M): 93 % of control; Residual activity ([15]; MYLK3, 1.0E-07 M): 104 % of control; Residual activity ([16]; NEK7, 1.0E-06 M): 101 % of control; Residual activity ([16]; NEK7, 1.0E-07 M): 129 % of control; Residual activity ([17]; 1.0E-06 M): 93 % of control; Residual activity ([17]; 1.0E-07 M): 102 % of control
2 | C#Cc1cc(Nc2ncnc3cc(OC)c(OC)cc23)ccc1Cl [Compound 45] | 80 % of control | 99 % of control | 107 % of control | 104 % of control | 83 % of control | 95 % of control | 85 % of control | 119 % of control | 126 % of control | 121 % of control | 104 % of control | 105 % of control | 94 % of control | 113 % of control | 84 % of control | 106 % of control | 89 % of control | 92 % of control | 101 % of control | 109 % of control | Residual activity ([11]; AMPK-alpha1 aa1-550, 1.0E-06 M): 98 % of control; Residual activity ([11]; AMPK-alpha1 aa1-550, 1.0E-07 M): 91 % of control; Residual activity ([12]; 1.0E-06 M): 91 % of control; Residual activity ([12]; 1.0E-07 M): 116 % of control; Residual activity ([13]; 1.0E-06 M): 70 % of control; Residual activity ([13]; 1.0E-07 M): 96 % of control; Residual activity, PYK2 ([14]; assay conc. 1.0E-06 M): 92 % of control; Residual activity, PYK2 ([14]; assay conc. 1.0E-07 M): 95 % of control; Residual activity ([15]; MYLK3, 1.0E-06 M): 86 % of control; Residual activity ([15]; MYLK3, 1.0E-07 M): 100 % of control; Residual activity ([16]; NEK7, 1.0E-06 M): 107 % of control; Residual activity ([16]; NEK7, 1.0E-07 M): 117 % of control; Residual activity ([17]; 1.0E-06 M): 63 % of control; Residual activity ([17]; 1.0E-07 M): 102 % of control
